From paper PMC6199744, “Development of Chemical Proteomics for the Folateome and Analysis of the Kinetoplastid Folateome” (ACS Infectious Diseases, 2018) come the findings set out here.

Holding throughout (type): binding
Test [1] concerns the target T1, HeLa cell extract proteins (Homo sapiens, UniProt P13667).
T1 construct: endogenous in cells; host or cells: HeLa cell extract
T1 sequence (P13667 21-645): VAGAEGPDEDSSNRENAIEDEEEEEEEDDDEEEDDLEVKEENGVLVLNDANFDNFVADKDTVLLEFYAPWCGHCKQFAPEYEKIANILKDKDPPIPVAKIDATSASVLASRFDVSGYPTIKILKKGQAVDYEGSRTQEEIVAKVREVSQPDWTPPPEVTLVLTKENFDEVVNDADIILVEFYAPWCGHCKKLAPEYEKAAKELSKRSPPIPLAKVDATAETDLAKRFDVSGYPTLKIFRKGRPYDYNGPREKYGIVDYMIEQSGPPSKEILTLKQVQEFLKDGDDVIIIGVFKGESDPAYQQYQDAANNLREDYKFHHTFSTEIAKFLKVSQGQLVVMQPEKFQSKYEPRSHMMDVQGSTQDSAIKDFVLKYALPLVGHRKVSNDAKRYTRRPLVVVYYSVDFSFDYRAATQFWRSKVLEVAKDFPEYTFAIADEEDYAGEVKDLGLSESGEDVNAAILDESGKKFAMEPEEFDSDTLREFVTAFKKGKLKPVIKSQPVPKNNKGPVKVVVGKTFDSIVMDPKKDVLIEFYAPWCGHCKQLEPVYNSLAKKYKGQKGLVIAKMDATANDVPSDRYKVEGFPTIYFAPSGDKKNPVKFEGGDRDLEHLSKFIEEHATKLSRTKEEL

In test [2] the target is T2, HeLa cell extract proteins (Homo sapiens, UniProt Q12769).
T2 construct: endogenous in cells; host or cells: HeLa cell extract
T2 sequence (Q12769 1-1436): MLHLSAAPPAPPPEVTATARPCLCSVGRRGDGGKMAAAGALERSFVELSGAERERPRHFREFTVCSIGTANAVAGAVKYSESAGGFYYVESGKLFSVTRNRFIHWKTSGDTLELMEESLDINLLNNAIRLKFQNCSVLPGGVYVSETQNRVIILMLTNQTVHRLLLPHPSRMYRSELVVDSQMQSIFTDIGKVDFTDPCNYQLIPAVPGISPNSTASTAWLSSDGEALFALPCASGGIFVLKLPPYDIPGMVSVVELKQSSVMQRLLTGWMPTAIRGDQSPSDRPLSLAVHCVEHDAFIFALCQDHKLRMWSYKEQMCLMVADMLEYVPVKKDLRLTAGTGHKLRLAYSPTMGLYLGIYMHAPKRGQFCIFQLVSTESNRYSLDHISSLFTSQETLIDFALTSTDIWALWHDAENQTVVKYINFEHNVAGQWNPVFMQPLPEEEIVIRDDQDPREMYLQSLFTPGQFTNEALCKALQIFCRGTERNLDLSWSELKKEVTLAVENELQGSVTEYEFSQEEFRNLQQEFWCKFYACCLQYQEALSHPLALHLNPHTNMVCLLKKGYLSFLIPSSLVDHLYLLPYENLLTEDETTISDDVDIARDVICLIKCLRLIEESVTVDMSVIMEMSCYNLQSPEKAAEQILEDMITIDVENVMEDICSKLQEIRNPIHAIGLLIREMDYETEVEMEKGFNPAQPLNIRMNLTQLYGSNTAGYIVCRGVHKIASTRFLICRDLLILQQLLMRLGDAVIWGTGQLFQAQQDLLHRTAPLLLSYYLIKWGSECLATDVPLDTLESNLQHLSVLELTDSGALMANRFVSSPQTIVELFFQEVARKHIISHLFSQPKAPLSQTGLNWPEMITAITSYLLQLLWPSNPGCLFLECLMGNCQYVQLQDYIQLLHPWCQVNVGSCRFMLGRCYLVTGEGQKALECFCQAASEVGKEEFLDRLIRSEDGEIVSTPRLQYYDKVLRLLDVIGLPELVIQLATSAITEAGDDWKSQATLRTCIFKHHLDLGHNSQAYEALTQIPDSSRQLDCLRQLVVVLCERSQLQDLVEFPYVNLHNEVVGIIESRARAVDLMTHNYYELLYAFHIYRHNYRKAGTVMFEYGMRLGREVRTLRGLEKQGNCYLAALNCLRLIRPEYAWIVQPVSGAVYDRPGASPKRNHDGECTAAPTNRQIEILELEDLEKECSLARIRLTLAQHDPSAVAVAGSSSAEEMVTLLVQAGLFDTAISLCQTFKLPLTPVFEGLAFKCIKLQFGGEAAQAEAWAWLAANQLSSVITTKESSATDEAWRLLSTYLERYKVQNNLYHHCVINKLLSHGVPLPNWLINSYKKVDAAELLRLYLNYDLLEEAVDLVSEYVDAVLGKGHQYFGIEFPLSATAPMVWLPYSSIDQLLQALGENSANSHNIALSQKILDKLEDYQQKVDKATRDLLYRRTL

In test [3] the target is T3, HeLa cell extract proteins (Homo sapiens, UniProt P23381).
T3 construct: endogenous in cells; host or cells: HeLa cell extract
T3 sequence (P23381 1-471): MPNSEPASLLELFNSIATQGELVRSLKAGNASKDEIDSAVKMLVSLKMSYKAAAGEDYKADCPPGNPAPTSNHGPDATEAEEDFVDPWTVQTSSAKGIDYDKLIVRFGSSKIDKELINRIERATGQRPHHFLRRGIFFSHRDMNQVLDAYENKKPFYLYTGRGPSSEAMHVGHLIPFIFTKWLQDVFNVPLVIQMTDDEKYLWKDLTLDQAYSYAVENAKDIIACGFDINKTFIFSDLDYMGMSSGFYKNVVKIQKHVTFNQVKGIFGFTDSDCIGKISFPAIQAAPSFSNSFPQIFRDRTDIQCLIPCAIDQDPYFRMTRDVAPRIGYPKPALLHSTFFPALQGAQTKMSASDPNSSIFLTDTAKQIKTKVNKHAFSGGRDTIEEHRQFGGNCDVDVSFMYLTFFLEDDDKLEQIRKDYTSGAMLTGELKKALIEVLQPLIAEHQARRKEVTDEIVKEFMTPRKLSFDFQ

Test [4] deals with T4, HeLa cell extract proteins (Homo sapiens, UniProt A3KMH1).
T4 construct: endogenous in cells; host or cells: HeLa cell extract

[5] abbreviates: HeLa, protein PDIA4 (PROTEIN DISULFIDE-ISOMERASE A4 PRECURSOR.).

Where two headings read alike, the source gives them in different places.

T4 sequence (A3KMH1 29-1905): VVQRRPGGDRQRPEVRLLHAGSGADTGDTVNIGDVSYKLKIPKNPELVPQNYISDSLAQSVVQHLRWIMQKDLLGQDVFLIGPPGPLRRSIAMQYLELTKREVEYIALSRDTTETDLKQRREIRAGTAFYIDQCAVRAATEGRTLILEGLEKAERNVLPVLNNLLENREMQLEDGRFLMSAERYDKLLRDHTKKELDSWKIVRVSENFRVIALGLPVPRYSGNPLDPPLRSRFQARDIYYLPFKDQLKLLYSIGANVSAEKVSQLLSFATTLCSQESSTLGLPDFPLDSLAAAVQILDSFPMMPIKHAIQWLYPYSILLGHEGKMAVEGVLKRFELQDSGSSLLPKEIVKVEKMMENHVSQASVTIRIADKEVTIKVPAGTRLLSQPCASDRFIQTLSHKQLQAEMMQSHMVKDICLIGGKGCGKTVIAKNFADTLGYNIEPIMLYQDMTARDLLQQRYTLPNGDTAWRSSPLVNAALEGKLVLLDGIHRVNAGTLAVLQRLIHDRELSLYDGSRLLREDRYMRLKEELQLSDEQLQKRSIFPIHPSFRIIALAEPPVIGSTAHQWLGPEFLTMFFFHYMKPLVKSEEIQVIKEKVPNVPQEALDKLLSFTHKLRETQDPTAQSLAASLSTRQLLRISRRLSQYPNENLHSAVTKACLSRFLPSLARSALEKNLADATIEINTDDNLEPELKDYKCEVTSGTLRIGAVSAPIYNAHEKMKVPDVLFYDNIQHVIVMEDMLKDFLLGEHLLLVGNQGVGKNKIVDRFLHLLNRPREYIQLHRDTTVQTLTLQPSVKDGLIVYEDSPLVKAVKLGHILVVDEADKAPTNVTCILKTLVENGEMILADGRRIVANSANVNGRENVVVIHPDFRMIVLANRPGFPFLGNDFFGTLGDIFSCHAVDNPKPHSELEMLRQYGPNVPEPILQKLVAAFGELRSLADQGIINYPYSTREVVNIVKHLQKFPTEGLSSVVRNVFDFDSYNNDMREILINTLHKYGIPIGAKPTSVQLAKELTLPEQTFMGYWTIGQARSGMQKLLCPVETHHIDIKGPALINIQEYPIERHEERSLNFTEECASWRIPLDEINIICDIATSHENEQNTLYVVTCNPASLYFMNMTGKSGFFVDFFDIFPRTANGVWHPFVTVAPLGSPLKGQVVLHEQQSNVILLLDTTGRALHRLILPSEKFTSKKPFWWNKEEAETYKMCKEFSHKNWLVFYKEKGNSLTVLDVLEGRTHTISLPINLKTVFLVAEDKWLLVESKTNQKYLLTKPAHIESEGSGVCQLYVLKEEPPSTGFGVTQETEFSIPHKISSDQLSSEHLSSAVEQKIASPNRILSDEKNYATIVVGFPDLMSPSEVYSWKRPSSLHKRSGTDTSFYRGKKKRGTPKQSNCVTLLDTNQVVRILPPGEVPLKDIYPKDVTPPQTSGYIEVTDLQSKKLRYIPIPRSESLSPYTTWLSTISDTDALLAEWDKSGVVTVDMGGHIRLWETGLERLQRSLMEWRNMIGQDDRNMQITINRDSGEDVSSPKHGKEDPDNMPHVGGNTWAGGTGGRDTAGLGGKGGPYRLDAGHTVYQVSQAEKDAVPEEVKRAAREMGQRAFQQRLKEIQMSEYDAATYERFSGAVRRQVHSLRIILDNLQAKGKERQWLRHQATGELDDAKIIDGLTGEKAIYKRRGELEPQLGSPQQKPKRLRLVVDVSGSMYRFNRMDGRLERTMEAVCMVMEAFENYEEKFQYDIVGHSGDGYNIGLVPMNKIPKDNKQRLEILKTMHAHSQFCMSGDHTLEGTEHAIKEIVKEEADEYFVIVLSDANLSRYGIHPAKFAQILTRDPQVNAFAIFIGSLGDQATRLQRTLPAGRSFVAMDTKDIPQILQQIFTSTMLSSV

As to `Nc1nc2c(c(=O)[nH]1)N(C=O)C(CNc1ccc(C(=O)N[C@@H](CCC(=O)O)C(=O)O)cc1)CN2` (stereo partly shown) [LEU, leucovorin], the “fold changes relative to vehicle control” value in test [1] (protein PDIA4, HeLa) turned out to be 0.93; in test [2] (HeLa, captured protein NUP160), 1.02; in test [3] (protein WARS, HeLa), 0.95; in test [4] (HeLa, protein KIAA0564), 1.

For `Nc1nc2[nH]cc(CCc3ccc(C(=O)N[C@@H](CCC(=O)O)C(=O)O)cc3)c2c(=O)[nH]1` [PTX, pemetrexed], the “fold changes relative to vehicle control” value came to 1.04 in test [1], 1.07 in test [2], 1.02 in test [3] and 0.99 in test [4].

As for `CCCCCCOc1ccc(Cc2cnc(N)nc2N)cc1` [compound 1], the “fold changes relative to vehicle control” value in test [1] (setting [5]) came to 1.76 fold; in test [2] (HeLa, protein NUP160) it was 1.03; in test [3] (protein WARS, HeLa), 0.96; in test [4] (protein KIAA0564, HeLa) it was 0.99.

For `CCCCCCOc1cccc(Cc2cnc(N)nc2N)c1` [compound 2], the “fold changes relative to vehicle control” value in test [1] (setting [5]) is reported as 2.84 fold; in test [2] (HeLa, protein NUP160) it was 1.11; in test [3] (protein WARS, HeLa), 1.71; in test [4] (protein KIAA0564, HeLa) it was 1.11.

On to `Nc1nc2cccc(-c3ccccc3)c2n1Cc1ccc(Cl)c(Cl)c1` [compound 3], for which the “fold changes relative to vehicle control” value in test [1] (setting [5]) amounted to 0.75 fold; in test [2] (HeLa, protein NUP160), 1.2; in test [3] (protein WARS, HeLa), 0.9; in test [4] (protein KIAA0564, HeLa), 1.1.

For `NCCOCCOCC(=O)Nc1nc2ncc(CNc3ccc(C(=O)NC(CCC(=O)O)C(=O)O)cc3)nc2c(=O)[nH]1` (stereo not shown) [compound 6], the “fold changes relative to vehicle control” value in test [1] (protein PDIA4, HeLa) stood at 1.14; in test [2] (HeLa, captured protein NUP160), 1.14; in test [3] (protein WARS, HeLa), 1.19; in test [4] (HeLa, protein KIAA0564) it was 1.1.

For the compound `NCCCNc1ccc(C(=O)NC(CCC(=O)O)C(=O)O)cc1` (stereo not shown) [compound 7], the “fold changes relative to vehicle control” value turned out to be 0.87 in test [1] (protein PDIA4, HeLa); 1.12 in test [2] (HeLa, captured protein NUP160); 0.98 in test [3] (protein WARS, HeLa); 1.09 in test [4] (HeLa, protein KIAA0564).
